Results published in PMC9688808, “Discovery of Novel Lin28 Inhibitors to Suppress Cancer Cell Stemness” (Cancers, 2022).

Tests used:
Lin28A ZKD = target: T1, Lin28A ZKD (Homo sapiens, UniProt Q9H9Z2); experiment: EMSA, Lin28A ZKD–Let-7 complex; assay type: binding; settings: compounds 100–1200 uM
T1 construct: Lin28A ZKD (aa121-187); His-tag; made in house; host or cells: Escherichia coli BL21
T1 sequence (Q9H9Z2 121-187): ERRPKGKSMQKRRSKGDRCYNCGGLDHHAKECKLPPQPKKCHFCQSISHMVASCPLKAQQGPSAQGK
Procedure: EMSA followed the standard protocols we published with minor modifications. An IRDye800CWN-labeled Let-7 RNA probe was purchased from IDT (Coralville, IA, USA). Lin28B or Lin28A proteins were incubated with […] of probe in a standard 20 uL EMSA reaction in a reaction buffer containing 20 mM HEPES-NaOH, pH 7.4, 2 mM DTT, 3 mM MgCl2, 0.05% NP-40, protease inhibitors, and 0.1 ug poly[dI:dC]. After incubation for 30 min at 37 °C, reactions were loaded onto 4% non-denatured polyacrylamide gel in 0.5× TBE buffer. The RNA oligo bands were visualized by using the Li-Cor Odyssey 9120 Infrared Imaging System.
Figure 5 Lin28 inhibitors block the Lin28A isoform. (A) EMSA used 10 nM of IR800DyeCWN-labeled Let-7 probe (lane 1), 0.5 uM Lin28A ZKD protein with 10 nM of labeled Let-7 probe (lane 2), or Lin28A ZKD, labeled Let-7 probe and 100× non-labeled competitor probe (lane 3). EMSA used Lin28A ZKD, labeled Let-7 probe, and 100–1200 uM of indicated compounds (lanes 4–10). (B) FP assays were performed by using 10 uM of Lin28A ZKD, 1 nM of FAM-labeled Let-7 probe, and 1 nM–200 uM of compounds. (C) Lin28A-positive IGROV1 cells were treated with 20 uM of the indicated compound for 48 h. Real-time qPCR measured RNA levels of Let-7d, SOX2, and HMGA2. Three biological replicates were performed and all results are presented as mean +/− SD. p-value ≤ 0.05—(*); ≤0.01—(**); ≤0.001—(***).

DUNE cells [1] = experiment: Real-time qPCR of CSC and neuroendocrine biomarkers in DUNE cells; assay type: cell-based; settings: 20 uM, 48 h
Procedure: (§1) There are several standard molecular techniques, including real-time qPCR, flow cytometry, cell proliferation, colony formation, and immunoblotting assays, that have been reported previously by our lab.
Figure 6 Lin28 inhibitors block the expression of NE and CSC biomarkers. DUNE cells were treated with 20 uM of the indicated compound for 48 h. Real-time qPCR measured RNA levels of neuroendocrine (A) and CSC (B) biomarkers. Three biological replicates were performed and all results are presented as mean +/− SD. p-value ≤ 0.05—(*); ≤0.01—(**); ≤0.001—(***).

DUNE cells [2] = experiment: Colony formation assay, DUNE cells; assay type: cell-based; settings: 20 uM (Figure 7C)
Procedure: as §1
Figure 7 Lin28 inhibitors block CSC phenotypes of cancer cells. (A) FACS analysis using CD44 and CD133 antibodies detected CSC cell populations from DUNE or DUNE (KO) cells treated with either vehicle or 20 uM of Ln7, Ln15, and Ln115 for 48 h. (B) DUNE, DUNE (KO), and IGROV1 cell proliferation were measured in the presence of 20 uM of Ln7, Ln15, and Ln115. (C) Colony formation assays (colonies >[…] were counted) measured the suppressive effects of Ln7, Ln15, and Ln115 at the concentration of 20 uM. p-value ≤ 0.01—(**); ≤0.001—(***).
Figure S4. A. Colony formation assays: DUNE cells were seeded in 500 cells/well. Chemicals were added one day after cell seeding (n=3 wells/chemical). Medium with chemical at the concentration of 60uM was changed every four days for 14 days. […]
0.005% crystal violet staining for 2 hours. ImageJ was used to analyze colony size and numbers (circularity was set at 0.5 -1, which is equivalent to 50uM in size). Only colonies larger than […]
50uM were countered. […]
(1 picture or pasted object on this page, not shown here)

[3] = set-up: method as in PMID 29874593; settings: cited from earlier work
[4] = set-up: method as in PMID 29874593; settings: at high uM concentrations; cited from earlier work
DUNE cells [5] = experiment: Immunoblotting in DUNE cells; assay type: cell-based; settings: 20uM, 24 hours, immunoblot
Procedure: as §1
Figure S2. DUNE cells were treated with 20uM of indicated compounds for 24 hours. Protein lyses were collected and immunoblotted with Vinculin, SOX2, and HMGA2 antibodies. […]
Figure S3. DUNE or DUNE(KO) cells were treated with 20uM of indicated compounds for 24 hours. Protein lyses were collected and immunoblotted with Lin28b, SYP, CD44, and CD133 antibodies. Beta-actin was used as the loading control. […]

CCOc1cccc2c1N[C@@H](c1ccc(C(=O)O)cc1)[C@H]1CC=C[C@@H]21 [Li71, reference compound]
concentration that inhibits formation of Lin28A ZKD–Let-7 complex in EMSA (Lin28A ZKD): 100 to 400 µM
expression of CSC markers (IGF2BP1, CDH2, FOXD3, HEY1, ALDH1A2, CDK6, FOXC1, SIX2, ID4) (DUNE cells [1]): variable mild inhibitory effects or no inhibition
formation of cancer cell colonies (DUNE cells [2]): strongly suppressed
solubility [3]: high solubility
cellular toxicity [4]: low cellular toxicity

CCc1cc(=O)[nH]c(Nc2cc(Cl)ccc2O)n1 [Ln7]
concentration that inhibits formation of Lin28A ZKD–Let-7 complex in EMSA (Lin28A ZKD): > 1200 µM
expression of CSC markers (IGF2BP1, CDH2, FOXD3, HEY1, ALDH1A2, CDK6, FOXC1, SIX2, ID4) (DUNE cells [1]): reductions
expression of neuroendocrine markers (ASCL1, CHGB, SCGN, SYP, STT4) (DUNE cells [1]): blocked
formation of cancer cell colonies (DUNE cells [2]): strongly suppressed

O=c1[nH]c(Nc2ccccc2O)cs1 [Ln15]
protein expression of SYP (DUNE cells [5]): suppressed
concentration that inhibits formation of Lin28A ZKD–Let-7 complex in EMSA (Lin28A ZKD): 100 to 400 µM
expression of CSC markers (IGF2BP1, CDH2, FOXD3, HEY1, ALDH1A2, CDK6, FOXC1, SIX2, ID4) (DUNE cells [1]): reductions
expression of neuroendocrine markers (ASCL1, CHGB, SCGN, SYP, STT4) (DUNE cells [1]): blocked
formation of cancer cell colonies (DUNE cells [2]): strongly suppressed
suppressive effect on colony formation (DUNE cells [2]; colonies >50 uM counted): ~ 90%

O=c1cccc(-c2nc3cc(F)c(O)cc3c(=O)[nH]2)[nH]1 [Ln115]
protein expression of SYP (DUNE cells [5]): suppressed
concentration that inhibits formation of Lin28A ZKD–Let-7 complex in EMSA (Lin28A ZKD): 100 to 400 µM
expression of CSC markers (IGF2BP1, CDH2, FOXD3, HEY1, ALDH1A2, CDK6, FOXC1, SIX2, ID4) (DUNE cells [1]): reductions
expression of neuroendocrine markers (ASCL1, CHGB, SCGN, SYP, STT4) (DUNE cells [1]): blocked
suppression of CDH2 expression (DUNE cells [1]): up to 90%
suppression of FOXD3 expression (DUNE cells [1]): up to 90%
formation of cancer cell colonies (DUNE cells [2]): strongly suppressed

CC(=O)N(C)c1cccc(-c2ccc3nnc(C)n3n2)c1 [compound 1632, reference compound]
concentration that inhibits formation of Lin28A ZKD–Let-7 complex in EMSA (Lin28A ZKD): > 1200 µM
expression of CSC markers (IGF2BP1, CDH2, FOXD3, HEY1, ALDH1A2, CDK6, FOXC1, SIX2, ID4) (DUNE cells [1]): variable mild inhibitory effects or no inhibition
formation of cancer cell colonies (DUNE cells [2]): strongly suppressed
